Laboratory results reported in US20240217992A1, “RETINOIC ACID RECEPTOR AGONIST, PREPARATION METHOD THEREFOR, INTERMEDIATE, PHARMACEUTICAL COMPOSITION AND USE” (JIANGXI KERUI PHARMACEUTICAL CO., LTD., priority 2021, published 2024).

Columns and labels:
[1] = target: T1, RARγ (Homo sapiens, UniProt P13631); assay: Agonist activity on RARγ, dual luciferase reporter gene assay in transfected HEK-293 cells; format: cell-based; settings: for EC50: HEK-293 cells, 24 h incubation, firefly/Renilla luciferase signal; for selectivity on RARγ compared with Trifarotene: RARγ versus RARα, from Table 2; for agonist activity on RARγ compared with Trifarotene: comparison of Table 2 EC50 values
T1 construct: expressed in transfected cells; host or cells: HEK-293 (ATCC #CRL-1573)
T1 sequence (P13631 1-454): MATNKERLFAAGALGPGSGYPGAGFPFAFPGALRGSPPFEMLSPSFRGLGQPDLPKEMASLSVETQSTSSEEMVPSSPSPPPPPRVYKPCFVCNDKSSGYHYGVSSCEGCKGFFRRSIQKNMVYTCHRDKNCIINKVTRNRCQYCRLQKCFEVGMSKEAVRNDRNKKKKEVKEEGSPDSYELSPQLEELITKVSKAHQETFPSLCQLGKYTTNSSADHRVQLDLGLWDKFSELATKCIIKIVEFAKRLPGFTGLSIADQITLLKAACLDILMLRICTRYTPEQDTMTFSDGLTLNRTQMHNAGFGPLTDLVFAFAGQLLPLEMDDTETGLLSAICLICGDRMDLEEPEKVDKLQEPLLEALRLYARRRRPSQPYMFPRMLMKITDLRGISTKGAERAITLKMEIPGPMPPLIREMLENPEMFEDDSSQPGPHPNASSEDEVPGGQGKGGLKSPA
Method: (§1) • 1. Day 1: Cell culture. The culture dish was treated with trypsin, and then cells at an appropriate concentration were inoculated into 10 mL of culture medium. Cell culture conditions: 37° C., 5% CO2, humid environment. • 2. Day 3: Transfection with FuGENE transfection reagent. A transfection mixture was prepared using the method of the supplier's instructions, then the tube was shaken vigorously to mix well, and the transfection mixture was left to incubate for 15 minutes at room temperature. The mixture was treated with trypsin to determine the cell density, and the cell suspension was appropriately diluted to the appropriate volume and density. The appropriate transfection reagent mixture was added thereto, and the cell suspension was added to a 96-well plate at 100 μL per well. The 96-well plate was incubated for 24 hours under the cell culture conditions in step 1. • 3. Day 4: Addition of test compound. The compound was formulated into a DMSO stock solution at a concentration of 210× and diluted to make a solution at a concentration of 21× by the addition of 9 times the amount of solvent. 5 μL of the compound solution at a concentration of 21× was added to each well and incubated for 24 hours under the same conditions as step 1. • 4. Day 5: Plate reading. The Dual Luciferase Reporter Gene Assay System was left at room temperature for 30 minutes prior to use, and […] was added to each well of the 96-well plate to detect the intensity of firefly luciferin in an appropriate manner. Afterwards, Stop&Glo reagent was added to detect the intensity of Renilla luciferin. • 5. Data processing. Signal=intensity of firefly luciferin/intensity of Renilla luciferin, multiple of agonist activation=compound signal/baseline signal (the intensity of the baseline signal was obtained from DMSO solution without the compound). pEC50 values were obtained by processing the data with GraphPad Prism, which were further converted to EC50 values.

[2] = target: T2, RARα (Homo sapiens, UniProt P10276); assay: Agonist activity on RARα, dual luciferase reporter gene assay in transfected HEK-293 cells; format: cell-based; settings: 24 h incubation, firefly/Renilla luciferase signal
T2 construct: expressed in transfected cells; host or cells: HEK-293 (ATCC #CRL-1573)
T2 sequence (P10276 1-462): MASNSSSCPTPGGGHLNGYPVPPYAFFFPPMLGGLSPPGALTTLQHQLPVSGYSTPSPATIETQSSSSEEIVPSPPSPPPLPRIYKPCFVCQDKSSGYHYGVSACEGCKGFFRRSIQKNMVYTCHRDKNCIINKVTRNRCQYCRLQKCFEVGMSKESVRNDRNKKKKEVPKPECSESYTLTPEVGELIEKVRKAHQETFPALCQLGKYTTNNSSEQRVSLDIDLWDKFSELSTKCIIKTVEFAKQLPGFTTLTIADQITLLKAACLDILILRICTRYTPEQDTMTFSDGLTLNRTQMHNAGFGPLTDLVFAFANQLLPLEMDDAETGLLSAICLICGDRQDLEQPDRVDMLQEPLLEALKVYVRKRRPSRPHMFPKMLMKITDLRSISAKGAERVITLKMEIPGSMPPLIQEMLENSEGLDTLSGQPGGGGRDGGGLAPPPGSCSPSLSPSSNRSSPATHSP
Method: as §1

[3] = system: human hepatocytes; settings: 10 µM
Method: (§2) The metabolic stability of the compounds was tested using human hepatocytes.
(§3) • 1. The compounds and hepatocytes were incubated for 240 minutes in the following system.
(§4) The culture was inactivated with 2 volumes of acetonitrile (0.1% FA) and then centrifuged for 15 minutes at 16,000 g. • 3. The supernatant was analyzed by LC-MS/MS for prototype compounds and metabolites.

[4] = system: human hepatocytes; assay: Hepatocyte stability (metabolic stability in human hepatocytes, LC-MS/MS); settings: for Normalized area (240 minutes), prototype compound peak (molecular weight shift 0.00): human hepatocytes 1.0 × 10^6 cells/mL, 37° C.
Method: as §2, §3, §4

Row | Structure (SMILES) | EC50 [1] [nM] | selectivity on RARγ compared with Trifarotene [1] | agonist activity on RARγ compared with Trifarotene [1] | EC50 [2] [nM] | Normalized area (240 minutes), Peak 4 of compound I-1 (molecular weight shift 0.02) [3] [%] | prototype compound remaining after 240 minutes of incubation in hepatocytes ([4]; human hepatocytes) | Normalized area (240 minutes), prototype compound peak (molecular weight shift 0.00) ([4]; 10 μM) [%] | Normalized area (240 minutes), Peak 3 of Trifarotene (molecular weight shift 16.00) ([4]; human hepatocytes, 10 μM, metabolite peak m/z 476.24) [%] | Normalized area (240 minutes), Peak 1 of Trifarotene (molecular weight shift 31.99) ([4]; human hepatocytes, 10 μM, metabolite peak m/z 492.24, retention time 4.18 minutes) [%] | Normalized area (240 minutes), Peak 4 of Trifarotene (molecular weight shift 31.99) ([4]; human hepatocytes, 10 μM, metabolite peak m/z 492.24, retention time 7.76 minutes) [%] | Normalized area (240 minutes), Peak 2 of Trifarotene (molecular weight shift 192.03) ([4]; human hepatocytes, 10 μM, metabolite peak m/z 652.27) [%]
1 | C[Si](C)(C)c1cc(-c2cc(-c3ccc(C(=O)O)cc3)ccc2OCCO)ccc1N1CCCC1 [Compound I-1, 4′-(2-hydroxyethoxy)-4′-(pyrrolidin-1-yl)-3′-(trimethylsilyl)-[1,1′:3′,1′-terphenyl]-4-carboxylic Acid] | 0.88 | better than that of Trifarotene | equal to or stronger than that of Trifarotene | 64 | 68.15 | less than 1% | 0.12 |  |  |  | 
2 | C[Si](C)(C)c1cc(-c2cc(-c3ccc(C(=O)O)cc3)ccc2OCCCO)ccc1N1CCCC1 [Compound I-2, 4′-(3-hydroxypropoxy)-4″-(pyrrolidin-1-yl)-3″-(trimethylsilyl)-[1,1′:3′,1″-terphenyl]-4-carboxylic acid] | 0.77 | better than that of Trifarotene | equal to or stronger than that of Trifarotene | 15.5 |  |  |  |  |  |  | 
3 | C[Si](C)(C)c1cc(-c2cc(-c3ccc(C(=O)O)cc3)ccc2OCCCCO)ccc1N1CCCC1 [Compound I-3, 4′-(4-hydroxybutoxy)-4″-(pyrrolidin-1-yl)-3″-(trimethylsilyl)-[1,1′:3′,1″-terphenyl]-4-carboxylic acid] | 9.08 | better than that of Trifarotene |  | 382 |  |  |  |  |  |  | 
4 | C[Si]1(C)CC[Si](C)(C)c2cc(-c3cc(-c4ccc(C(=O)O)cc4)ccc3OCCO)ccc21 [Compound I-5, 4′-(2-hydroxyethoxy)-3′-(1,1,4,4-tetramethyl-1,2,3,4-tetrahydrobenzo[b][1,4]disilan-6-yl)-[1,1′-biphenyl]-4-carboxylic acid] | 1.05 | better than that of Trifarotene | equal to or stronger than that of Trifarotene | 18.5 |  |  |  |  |  |  | 
5 | CC(C)(C)c1cc(-c2cc(-c3ccc(C(=O)O)cc3)ccc2OCCO)ccc1N1CCCC1 [Trifarotene] |  |  |  |  |  | 13.57% | 13.57 | 54.29 | 9.35 | 9.10 | 9.98
